Laboratory results taken from PMC2527972 (Science (New York, N.Y.), 2008).

Target: T1, MetNI (Escherichia coli, UniProt P30750)
T1 sequence (P30750 1-343): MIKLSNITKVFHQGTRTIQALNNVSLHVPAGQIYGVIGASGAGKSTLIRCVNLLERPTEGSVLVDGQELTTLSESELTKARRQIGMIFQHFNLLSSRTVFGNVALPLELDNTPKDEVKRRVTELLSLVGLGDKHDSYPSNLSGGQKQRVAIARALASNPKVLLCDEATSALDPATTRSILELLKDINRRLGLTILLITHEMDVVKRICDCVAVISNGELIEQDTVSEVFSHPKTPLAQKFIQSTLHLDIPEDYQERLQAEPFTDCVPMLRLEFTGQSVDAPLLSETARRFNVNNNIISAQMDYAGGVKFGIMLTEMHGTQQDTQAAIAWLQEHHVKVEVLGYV
T1 sequence (P31547 1-217 partner): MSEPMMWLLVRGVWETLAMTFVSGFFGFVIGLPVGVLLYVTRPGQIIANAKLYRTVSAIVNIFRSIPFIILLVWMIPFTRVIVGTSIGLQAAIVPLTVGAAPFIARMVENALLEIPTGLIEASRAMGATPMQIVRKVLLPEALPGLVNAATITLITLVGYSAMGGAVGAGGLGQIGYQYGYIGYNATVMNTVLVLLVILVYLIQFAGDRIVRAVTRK
Assay: ATPase activity, phosphate production assay
Assay type: biochemical

**Q.** With CSCC[C@H](N)C(=O)O [L-methionine] as the molecule, how does the IC50 read?
**A.** ~30 µM
